Measured values: US11066416B2, “Rapafucin derivative compounds and methods of use thereof” (The Johns Hopkins University, priority 2016, dated 2021)
pIC50: −log10 of the molar value.

Tests used:
Format in all cases: cell-based
293T = test: Nucleoside uptake assay (uptake) using 3H-Thymidine, 293T; details: 293T cells
Protocol: (§1) Nucleoside Uptake Assay (uptake). Nuceloside uptake assays were performed with using 3H-Thymidine as described in Guo et al. (2018) Nat. Chem. 11:254-63. Specific cell lines are indicated in each assay and cultured in complete growth media. Activity is scored according to the IC50 values relative to DMSO control. “Low” indicates an IC50 greater than 600 nM, “Medium” indicates an IC50 between 300 nM and 600 nM “High” indicates an IC50 less than 300 nM. “Rel.Uptake” refers to uptake activity characterization relative to a single concentration assay. “Low” indicates a response greater than 0.6 times the activity relative to DMSO, “Medium” indicates a response between 0.6 and 0.3 times the activity relative to DMSO, “High” indicates a response less than 0.3 times the activity relative to DMSO.

[1] = tested on: nucleoside uptake (3H-Thymidine); test: Rel.Uptake: nucleoside uptake, single concentration assay, cell line as indicated in each table; details: response relative to DMSO
Protocol: as §1

[2] = tested on: nucleoside uptake (3H-Thymidine); test: Nucleoside uptake assay (uptake) using 3H-Thymidine, IC50, cell line as indicated in each table (none given in Table 8); details: 3H-Thymidine uptake; cell line not given
Protocol: as §1

[3] = IC50 class relative to DMSO control

| SMILES | Uptake, 293T (293T; [3]) | Rel. Uptake, 293T ([1]; 293T, nucleoside uptake) | further results |
| --- | --- | --- | --- |
| COc1ccc(CC[C@H]2OC(=O)[C@@H]3CCCCN3C(=O)C(=O)C(C)(C)COC(=O)C=CCCN(C)C(=O)[C@H](CC(C)C)N(C)C(=O)[C@H]3CCCN3C(=O)[C@H](CC(=O)OC(C)(C)C)N(C)C(=O)C(c3ccccc3)NC(=O)CCC(=O)Nc3cccc2c3)cc1OC (stereo partly shown) [Compound 1066] | high | – | Rel. Uptake, 293T ([1]; 293T): high |
| COc1ccc(CC[C@H]2OC(=O)[C@@H]3CCCCN3C(=O)C(=O)C(C)(C)COC(=O)C=CCCN(C)C(=O)[C@H](CC(C)C)N(C)C(=O)[C@H]3CCCN3C(=O)[C@H](Cc3ccc(CC(=O)OC(C)(C)C)cc3)NC(=O)C(c3ccccc3)NC(=O)CCC(=O)Nc3cccc2c3)cc1OC (stereo partly shown) [Compound 1081] | medium | – | Rel. Uptake, 293T ([1]; 293T): medium |
| COc1ccc(CC[C@H]2OC(=O)[C@@H]3CCCCN3C(=O)C(=O)C(C)(C)COC(=O)C=CCCN(C)C(=O)[C@H](CC(C)C)N(C)C(=O)[C@H]3CCCN3C(=O)[C@H](Cc3ccc(OCc4ccccc4)cc3)NC(=O)C(c3ccccc3)NC(=O)CCC(=O)Nc3cccc2c3)cc1OC (stereo partly shown) [Compound 1082] | low | – | Rel. Uptake, 293T ([1]; 293T): low |
| COc1ccc(CC[C@H]2OC(=O)[C@@H]3CCCCN3C(=O)C(=O)C(C)(C)COC(=O)C=CCCN(C)C(=O)[C@H](CC(C)C)N(C)C(=O)[C@H]3CCCN3C(=O)[C@H]3C[C@@H](NC(=O)OC(C)(C)C)CN3C(=O)C(c3ccccc3)NC(=O)CCC(=O)Nc3cccc2c3)cc1OC (stereo partly shown) [Compound 1087] | low | – | Rel. Uptake, 293T ([1]; 293T cells): low |
| COc1ccc(CC[C@H]2OC(=O)[C@@H]3CCCCN3C(=O)C(=O)C(C)(C)COC(=O)C=CCCN(C)C(=O)[C@H](CC(C)C)N(C)C(=O)[C@H]3CCCN3C(=O)[C@H](Cc3ccccc3)N(C)C(=O)[C@H](CC(=O)OC(C)(C)C)NC(=O)CCC(=O)Nc3cccc2c3)cc1OC [Compound 1088] | low | – | Rel. Uptake, 293T ([1]; 293T cells): low |
| COc1ccc(CC[C@H]2OC(=O)[C@@H]3CCCCN3C(=O)C(=O)C(C)(C)COC(=O)C=CCCN(C)C(=O)[C@@H](c3ccccc3)NC(=O)[C@H](Cc3ccc(OP(C)(C)=O)cc3)NC(=O)[C@H]3CCCN3C(=O)[C@H](CC(C)C)N(C)C(=O)COc3cccc2c3)cc1OC [Compound 1520] | – | low | Uptake, 293T (293T; Table 16): low |
| COc1ccc(CC[C@H]2OC(=O)[C@@H]3CCCCN3C(=O)C(=O)C(C)(C)COC(=O)C=CCCN(C)C(=O)[C@H](CC(C)C)N(C)C(=O)[C@H]3CCCN3C(=O)[C@H](Cc3ccc(O)cc3)NC(=O)C(c3ccccc3)NC(=O)CCC(=O)Nc3cccc2c3)cc1OC (stereo partly shown) [Compound 1522] | high | high | – |
| COc1ccc(CC[C@H]2OC(=O)[C@@H]3CCCCN3C(=O)C(=O)C(C)(C)CNC(=O)C=CCCN(C)C(=O)[C@H](CC(C)C)N(C)C(=O)[C@H]3CCCN3C(=O)[C@H](Cc3ccccc3)N(C)C(=O)C(c3ccccc3)NC(=O)CCC(=O)Nc3cccc2c3)cc1OC (stereo partly shown) [Compound 1555] | high | high | – |
| COc1ccc(CC[C@H]2OC(=O)[C@@H]3CCCCN3C(=O)C(=O)C(C)(C)COC(=O)C=CCCN(C)NC(c3ccccc3)C(=O)N(C)[C@@H](Cc3ccccc3)C(=O)N3CCC[C@@H]3C(=O)N(C)[C@@H](CC(C)C)C(=O)C(=O)CCOc3cccc2c3)cc1OC (stereo partly shown) [Compound 1556] | low | low | – |
| COc1ccc(CC[C@H]2NC(=O)[C@@H]3CCCCN3C(=O)C(=O)C(C)(C)COC(=O)C=CCCN(C)C(=O)[C@H](CC(C)C)N(C)C(=O)[C@H]3CCCN3C(=O)[C@H](Cc3ccccc3)N(C)C(=O)C(c3ccccc3)NC(=O)CCC(=O)Nc3cccc2c3)cc1OC (stereo partly shown) [Compound 1557] | high | high | – |
| COc1ccc(CC[C@H]2OC(=O)[C@@H]3CCCCN3C(=O)C(=O)C(C)(C)COC(=O)C=CCCN(C)C(=O)[C@H](CC(C)C)N(C)C(=O)[C@H]3CCCN3C(=O)[C@H](Cc3ccc(C(=O)NCCO)cc3)NC(=O)[C@H](c3ccccc3)NC(=O)CCC(=O)Nc3cccc2c3)cc1OC [Compound 1558] | – | high | Uptake, 293T (293T; Table 15): high |
| COc1ccc(CC[C@H]2OC(=O)[C@@H]3CCCCN3C(=O)C(=O)C(C)(C)COC(=O)C=CCCN(C)C(=O)[C@H](CC(C)C)N(C)C(=O)[C@H]3CCCN3C(=O)[C@H](Cc3ccc(C(=O)Nc4ccccc4)cc3)NC(=O)[C@H](c3ccccc3)NC(=O)CCC(=O)Nc3cccc2c3)cc1OC [Compound 1559] | – | medium | Uptake, 293T (293T; Table 15): medium |
| COc1ccc(CC[C@H]2OC(=O)[C@@H]3CCCCN3C(=O)C(=O)C(C)(C)COC(=O)C=CCCN(C)C(=O)[C@H](CC(C)C)N(C)C(=O)[C@H]3CCCN3C(=O)[C@H](Cc3ccc(C(=O)Nc4cccnc4)cc3)NC(=O)[C@H](c3ccccc3)NC(=O)CCC(=O)Nc3cccc2c3)cc1OC [Compound 1562] | – | low | Uptake, 293T (293T; Table 15): low |
| COc1ccc(CC[C@H]2OC(=O)[C@@H]3CCCCN3C(=O)C(=O)C(C)(C)COC(=O)C=CCCN(C)C(=O)[C@H](CC(C)C)N(C)C(=O)[C@H]3CCCN3C(=O)[C@H](Cc3ccc(CNC(=O)c4ccccc4)cc3)NC(=O)[C@H](c3ccccc3)NC(=O)CCC(=O)Nc3cccc2c3)cc1OC [Compound 1585] | – | High (“High” indicates a response less than 0.3 times the activity relative to DMSO) | pIC50 (293T; Table 14): > 6.52 |
| COc1ccc(CC[C@H]2OC(=O)[C@@H]3CCCCN3C(=O)C(=O)C(C)(C)COC(=O)C=CCCN(C)C(=O)[C@H](CC(C)C)N(C)C(=O)[C@H]3CCCN3C(=O)[C@H](Cc3ccc(CNC(=O)Cc4ccccc4)cc3)NC(=O)[C@H](c3ccccc3)NC(=O)CCC(=O)Nc3cccc2c3)cc1OC [Compound 1586] | – | Med | Uptake, 293T (293T; Table 14): Med |
| COc1ccc(CC[C@H]2OC(=O)[C@@H]3CCCCN3C(=O)C(=O)C(C)(C)COC(=O)C=CCCN(C)C(=O)[C@H](CC(C)C)N(C)C(=O)[C@H]3CCCN3C(=O)[C@H](Cc3ccc(CNC(=O)CN(C)C)cc3)NC(=O)[C@H](c3ccccc3)NC(=O)CCC(=O)Nc3cccc2c3)cc1OC [Compound 1587] | – | Low (“Low” indicates a response greater than 0.6 times the activity relative to DMSO) | pIC50 (293T; Table 14): < 6.22 |
| COc1ccc(CC[C@H]2OC(=O)[C@@H]3CCCCN3C(=O)C(=O)C(C)(C)COC(=O)C=CCCN(C)C(=O)[C@H](CC(C)C)N(C)C(=O)[C@H]3CCCN3C(=O)[C@H](Cc3cccc(NC(C)=O)c3)NC(=O)[C@H](c3ccccc3)NC(=O)CCC(=O)Nc3cccc2c3)cc1OC [Compound 1588] | – | High (“High” indicates a response less than 0.3 times the activity relative to DMSO) | pIC50 (293T; Table 14): > 6.52 |
| COc1ccc(CC[C@H]2OC(=O)[C@@H]3CCCCN3C(=O)C(=O)C(C)(C)COC(=O)C=CCCN(C)C(=O)[C@H](CC(C)C)N(C)C(=O)[C@H]3CCCN3C(=O)[C@H](Cc3ccc(NC(=O)Cc4cccnc4)cc3)NC(=O)[C@H](c3ccccc3)NC(=O)CCC(=O)Nc3cccc2c3)cc1OC [Compound 1589] | – | Low (“Low” indicates a response greater than 0.6 times the activity relative to DMSO) | pIC50 (293T; Table 14): < 6.22 |
| COc1ccc(CC[C@H]2OC(=O)[C@@H]3CCCCN3C(=O)C(=O)C(C)(C)COC(=O)C=CCCN(C)C(=O)[C@H](CC(C)C)N(C)C(=O)[C@H]3CCCN3C(=O)[C@H](Cc3ccc(CC(=O)NCc4ccccc4)cc3)NC(=O)[C@H](c3ccccc3)NC(=O)CCC(=O)Nc3cccc2c3)cc1OC [Compound 1590] | – | High (“High” indicates a response less than 0.3 times the activity relative to DMSO) | pIC50 (293T; Table 15): < 6.22 |
| CCCCCCNC(=O)Cc1ccc(C[C@@H]2NC(=O)[C@H](c3ccccc3)NC(=O)CCC(=O)Nc3cccc(c3)[C@@H](CCc3ccc(OC)c(OC)c3)OC(=O)[C@@H]3CCCCN3C(=O)C(=O)C(C)(C)COC(=O)C=CCCN(C)C(=O)[C@H](CC(C)C)N(C)C(=O)[C@H]3CCCN3C2=O)cc1 [Compound 1591] | – | Med | pIC50 (293T; Table 15): < 6.22 |
| CCC[C@H]1C(=O)N(C)CCC=CC(=O)OCC(C)(C)C(=O)C(=O)N2CCCC[C@H]2C(=O)O[C@H](CCc2ccc(OC)c(OC)c2)c2cccc(c2)OCC(=O)NCC(=O)N(C)[C@H](Cc2ccccc2)C(=O)N2CCC[C@H]2C(=O)N1C [Compound 1625] | – | – | pIC50 [2]: 7.37 |
| COc1ccc(CC[C@H]2OC(=O)[C@@H]3CCCCN3C(=O)C(=O)C(C)(C)COC(=O)C=CCCN(C)C(=O)[C@@H](C)N(C)C(=O)[C@@H]3CCCN3C(=O)[C@@H](Cc3ccccc3)N(C)C(=O)CNC(=O)COc3cccc2c3)cc1OC [Compound 1626] | – | – | pIC50 [2]: 6.81 |
| COc1ccc(CC[C@H]2OC(=O)[C@@H]3CCCCN3C(=O)C(=O)C(C)(C)COC(=O)C=CCCN(C)C(=O)C3(CCCCC3)NC(=O)[C@@H]3CCCN3C(=O)[C@@H](Cc3ccccc3)N(C)C(=O)CNC(=O)COc3cccc2c3)cc1OC [Compound 1627] | – | – | pIC50 [2]: 6.58 |
